Measured values taken from paper PMC7464304, “Multiple-Reaction Monitoring Tandem Mass Method for Determination of Phenolics and Water-Soluble Vitamins in Eccoilopus formosanus” (Molecules, 2020).

assay: DPPH radical scavenging activity; settings: 0.1 mM DPPH, 30 min in the dark at room temperature, absorbance 517 nm; mean ± SD (n = 3)
Method: The reaction mixture was left in the dark at room temperature for 30 min. […] The percentage of scavenging activity against the DPPH radical was calculated by the following equation:Radical scavenging activity (%) = (Abs control − Abs sample)/Abs control × 100% where Abs control is the absorbance of the DPPH radical in methanol; Abs sample is the absorbance of the DPPH radical solution mixed with the sample extract. […] All determinations were performed in triplicate.

DPPH Radical Scavenging Activity, IC50 Value | SMILES
25.3 ± 0.3 µg/mL | O=C(O)/C=C/c1ccc(O)c(O)c1 [Caffeic acid, caffeic acid]
45.2 ± 0.3 µg/mL | COc1cc(/C=C/C(=O)O)ccc1O [Ferulic acid, ferulic acid]
21.1 ± 0.3 µg/mL | O=C(O)c1cc(O)c(O)c(O)c1 [Gallic acid, gallic acid]
31.6 ± 0.9 µg/mL | O=c1cc(-c2ccc(O)cc2)oc2cc(O)cc(O)c12 [Apigenin, apigenin]
>500 µg/mL | Cc1ncc(C[n+]2csc(CCO)c2C)c(N)n1 [Thiamine, thiamine]
